# According to patent US4874851A, “3',4'-dinitrogen substituted epipodophyllotoxin glucoside derivatives” (Bristol-Meyers Company, priority 1987, dated 1989):
# Assays:
# B16-F10 murine melanoma = assay: In vitro cytotoxicity assay, B16-F10 murine melanoma; format: cell-based; conditions: four-fold serial dilution, <500 μg/ml positive, two lines per compound; for IC50: Mus musculus, B16-F10, inhibit cell growth by 50%, read-out: IC50 B-16-F10; for IC50 B-16-F10: inhibit cell growth by 50%
# Protocol: (§1) Representative compounds of the present invention were evaluated for their antitumor activity in in vitro cytotoxicity assay against human and murine tumor cell lines, as well as against transplantable murine P388 leukemia.
# (§2) The in vitro cytotoxicity assay involved growing various mammalian tumor cells, including human tumor cells, on microtitre plates employing established tissue culture methods. The concentration of each compound required to inhibit cell growth by 50% (IC50) was then determined by a four-fold serial dilution technique. The validity of the method has been supported by a report published in the "Proceedings of the American Association for Cancer Research", 1984, 25: 1891 (Abst. No. 328). Tumor cells of the following types were employed for each compound tested: B16-F10 murine melanoma; KB human nasopharyngyl; Moser human colon; SW900 human lung; M109 murine lung; and three human colon tumor cell lines namely HCT-116, HCT-VM, and HCT-VP, the latter two being resistant to teniposide (VM) and etoposide (VP), respectively. IC50 values less than 500 μg/ml are a positive indicator of antitumor activity. Table II presents IC50 values of various compounds of the present invention against the aforementioned cell lines.
# P388 leukemia = assay: Antitumor activity against transplantable murine P388 leukemia in mice (i.p. implant); format: in vivo, murine (female CDF1 mice); conditions: i.p. on days 5 and 8; 10^6 ascites cells i.p.; maximum effect over doses; >=125 significant
# Protocol: as §1
# Female CDF1 mice were implanted intraperitoneally with a tumor inoculum of 10^6 ascites cells of P388 murine leukemia and treated with various doses of a test compound; four mice were used for each dose level and ten were used as saline-treated control. The compounds were administered by intraperitoneal injection on days 5 and 8 (day 1 being the day of tumor implantation). Antitumor activity was expressed as % T/C which is the ratio of the median survival time (MST) of drug-treated group to the MST of saline-treated control group. A compound showing a % T/C value of 125 or greater is generally considered to have significant antitumor activity in the P388 test. The experiment lasted 31 days at the end of which time the number of survivors was noted. Table I presents the results of the above-described evaluation; only the maximum % T/C and the dose showing the maximum effect are reported.
# SW900 human lung = assay: In vitro cytotoxicity assay, SW900 human lung; format: cell-based; conditions: four-fold serial dilution, two lines per compound; for IC50: Homo sapiens, SW900, inhibit cell growth by 50%
# Protocol: as §1, §2
# HCT-116 = assay: In vitro cytotoxicity assay, HCT-116 human colon; format: cell-based; conditions: four-fold serial dilution, two lines per compound; for IC50: Homo sapiens, HCT-116, inhibit cell growth by 50%; for IC50 HCT-116: inhibit cell growth by 50%
# Protocol: as §1, §2
# Moser human colon = assay: In vitro cytotoxicity assay, Moser human colon; format: cell-based; conditions: inhibit cell growth by 50%, four-fold serial dilution, two lines per compound; for IC50: Homo sapiens
# Protocol: as §1, §2
# [1] = tested on: small cell lung cancer, non-lymphocytic leukemia, and non-seminomatous testicular cancer; conditions: AMA Drug Evaluation, 5th Edition, 1983; cited from earlier work
# M109 murine lung = assay: In vitro cytotoxicity assay, M109 murine lung; format: cell-based; conditions: four-fold serial dilution, two lines per compound; for IC50: Mus musculus, M109, inhibit cell growth by 50%; for IC50 M109: inhibit cell growth by 50%
# Protocol: as §1, §2
# HCT/VM46 = assay: In vitro cytotoxicity assay, HCT/VM46 human colon, resistant to teniposide; format: cell-based; conditions: inhibit cell growth by 50%, two lines per compound
# Protocol: as §1, §2
# HCT/VP35 = assay: In vitro cytotoxicity assay, HCT/VP35 human colon, resistant to etoposide; format: cell-based; conditions: inhibit cell growth by 50%, two lines per compound
# Protocol: as §1, §2
# KB human nasopharyngyl = assay: In vitro cytotoxicity assay, KB human nasopharyngyl; format: cell-based; conditions: inhibit cell growth by 50%, four-fold serial dilution, two lines per compound
# Protocol: as §1, §2
Structure (SMILES),IC50 (B16-F10 murine melanoma) [µg/mL],IC50 B-16-F10 (B16-F10 murine melanoma) [µg/mL],Max. % T/C (median survival time treated / saline control) (P388 leukemia) [%],IC50 (SW900 human lung) [µg/mL],IC50 (HCT-116) [µg/mL],IC50 HCT-116 (HCT-116) [µg/mL],IC50 (Moser human colon) [µg/mL],IC50 MOSER (Moser human colon) [µg/mL],activity in the treatment of a variety of cancers (in words) [1],IC50 (M109 murine lung) [µg/mL],IC50 M109 (M109 murine lung) [µg/mL],IC50 SW900 (SW900 human lung; inhibit cell growth by 50%) [µg/mL],IC50 (HCT/VM46; Homo sapiens) [µg/mL],IC50 HCT/VM46 (HCT/VM46) [µg/mL],"IC50 (HCT/VP35; Homo sapiens, HCT/VP35, etoposide-resistant) [µg/mL]",IC50 HCT/VP35 (HCT/VP35; etoposide-resistant) [µg/mL],IC50 (KB human nasopharyngyl; Homo sapiens) [µg/mL],IC50 KB (KB human nasopharyngyl) [µg/mL]
"COc1cc(C2c3cc4c(cc3C(OC3OC5COC(C)OC5C(O)C3O)C3COC(=O)C23)OCO4)cc(N=Cc2ccncc2)c1N=Cc1ccncc1 (stereo not shown) [Example 10, 4'-Dehydroxy-3'-demethoxy-3',4'-bis-(4-pyridylmethylene) amino Etoposide]",59,100,145,> 250,81,103,,,,,,,,,,,,
"COc1cc(C2c3cc4c(cc3C(OC3OC5COC(C)OC5C(O)C3O)C3COC(=O)C23)OCO4)cc(NC(C)=O)c1NC(C)=O (stereo not shown) [Example 4, 4'-Dehydroxy-3'-demethoxy-3',4'-bis-acetylamino etoposide]",116,98,105,> 250,> 250,,106,123,,,,,,,,,,
COc1cc([C@@H]2c3cc4c(cc3[C@@H](O[C@@H]3O[C@@H]5CO[C@@H](c6cccs6)O[C@H]5[C@H](O)[C@H]3O)[C@H]3COC(=O)[C@H]23)OCO4)cc(OC)c1O [teniposide],,,,,,,,,active in the treatment of a variety of cancers,,,,,,,,,
"COc1cc(C2c3cc4c(cc3C(OC3OC5COC(C)OC5C(O)C3O)C3COC(=O)C23)OCO4)cc(N)c1N (stereo not shown) [Example 3, 4'-Dehydroxy-3'-demethoxy-3',4'-diamino etoposide]",,,216,,108,102,87,91,,104,87,,,,,,,
"COc1cc(C2c3cc4c(cc3C(OC3OC5COC(C)OC5C(O)C3O)C3COC(=O)C23)OCO4)cc2nn[nH]c12 (stereo not shown) [Example 17, 4'-Dehydroxy-3'-demethoxy-etoposide 3',4'-triazole]",45,55,125,78,53,62,91,88,,,,89,64,88,84,82,,
"CCOP1(=S)Nc2cc(C3c4cc5c(cc4C(OC4OC6COC(C)OC6C(O)C4O)C4COC(=O)C34)OCO5)cc(OC)c2N1 (stereo not shown) [Example 21, 4'-Dehydroxy-3'-demethoxy etoposide 3',4'-ethylthiophosphamide]",23,17.9,145,> 250,20,26,21,23,,,,,,,,,,
"CON=C1C=C(C2c3cc4c(cc3C(OC3OC5COC(C)OC5C(O)C3O)C3COC(=O)C23)OCO4)C=C(OC)C1=NOC (stereo not shown) [Example 2, 4'-Dehydroxy-3'-demethoxy-etoposide 3',4'-bis-O-methyloxime]",29,51,175,> 250,84,91,54,40,,,,,,,,,,
COc1cc([C@@H]2c3cc4c(cc3[C@@H](O[C@@H]3O[C@@H]5CO[C@@H](C)O[C@H]5[C@H](O)[C@H]3O)[C@H]3COC(=O)[C@H]23)OCO4)cc(OC)c1O [etoposide],,,,,,,,,active in the treatment of a variety of cancers,,,,,,,,,
"COc1cc(C2c3cc4c(cc3C(OC3OC5COC(C)OC5C(O)C3O)C3COC(=O)C23)OCO4)cc2nc[nH]c12 (stereo not shown) [Example 18, 4'-Dehydroxy-3'-demethoxy etoposide 3',4'-imidazole]",82,55,115,> 250,> 250,,116,115,,,,,,,,,,
"COc1cc(C2c3cc4c(cc3C(OC3OC5COC(C)OC5C(O)C3O)C3COC(=O)C23)OCO4)cc2nc(C)c(C)nc12 (stereo not shown) [Example 20, 4'-Dehydroxy-3'-demethoxy-etoposide 3',4'-(2,3-dimethylpyrazine)]",118,113,110,> 250,103,99,113,90,,,,,,,,,,
"COC1=CC(C2c3cc4c(cc3C(OC3OC5COC(C)OC5C(O)C3O)C3COC(=O)C23)OCO4)=CC(=NOCc2ccccc2)C1=NOCc1ccccc1 (stereo not shown) [Example 1, 4'-Dehydroxy-3'-demethoxy-etoposide 3',4'-bis-O-benzyloxime]",14.5,14.1,126,,,,,,,83,59,,,,,,37,28
